Data taken from US20250262167A1, “COMPOUNDS, TARGETS AND PATHWAYS FOR MACROPHAGE MODULATION” (Massachusetts Institute of Technology, priority 2020, published 2025).

Assays:
hMDMs = experiment: RNA-seq transcriptional response of hMDMs (GSEA, GO enrichment); type: cell-based, human; conditions: for gene expression of TPP modules (#30, #32) / gene expression of typical M1 modules (#7, #8): hMDMs, 24 hrs, GSEA; for macrophage phenotype at transcriptional and translational level: human macrophages
Method: Duplicate hMDM samples were treated with 2 M2-activating and 6 M1-activating compounds as well as IL-4 and IFNγ for 24 hrs. Gene expression levels were measured by RNA-seq separately. GSEA preranked analysis was performed based on the whole genome gene list ranked on gene expression changes using a gene set of 49 transcriptional modules in response to 29 stimuli in hMDMs. bosut.: bosutinib; alster.: alsterpaullone; mocet.: mocetinostat; thios.: thiostrepton; niclo.: niclosamide; chlor.: chlorhexidine; fenb.: fenbendazole; fluvo.: fluvoxamine. […] Duplicate hMDM samples were stimulated with each ligand and analyzed by RNA-seq separately.
RNAs were extracted with RNeasy MiniElute kit (Qiagen), converted into cDNA and sequenced using Next-Generation Sequencing (Illumina). […] Differential expression analysis was performed using the program edgeR at P<0.05 with a 2 fold-change. The gene expression level across different samples was normalized and quantified using the function of cpm. Differentially expressed genes were annotated using online functional enrichment analysis tool DAVID (http://david.ncifcrf.gov/). Gene set enrichment analysis were performed with GSEA with FDR q-value<0.05.
Fresh hMDMs were treated with compounds at the EC for 24 hours, followed by RNA-seq.

M0 macrophages (hMDMs) = experiment: Dosage response of cell shape change on M0 macrophages; type: cell-based, human; conditions: M0 macrophages; for EC: EC = concentration inducing cell morphology changes to reach the M1 or M2 Z-score cutoff, Michaelis-Menten fit, 3 independent experiments, unit of the source corrected; for Max absolute Z-value: Max Z-score from Michaelis-Menten equation, negative = round, positive = elongated
[1] = system: human monocyte-derived macrophages (hMDMs); experiment: High throughput phenotypic screen of macrophage activation (cell shape, Z-score); type: cell-based; parameters: key to Average Z-value: Z-score vs DMSO; negative = round cells, positive = elongated; conditions: for activation state induced in the screen: compounds regulating actin-cytoskeleton;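 as to all read-outs here: phalloidin and DAPI stained hMDMs imaged by high-content microscopy, cell eccentricity compared with DMSO control by T-test, round morphology scored negative, elongated positive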
Method: The Z-score was calculated by T-test to measure the difference of cell morphology between treatment and control. Stimuli had negative Z-scores when induced cells to round morphology and positive scores when induced cells to elongated morphology. […] Equally mixed human monocytes isolated from fresh blood of 4 healthy donors were cultured in vitro with 50 ng/mL M-CSF for 7 days. hMDMs were trypsinized and plated on 384-well plates (5000 cells/well in 50 μL). Cells were recovered in 10 ng/mL M-CSF for 16 hrs and then treated with compounds for 24 hrs. Cells were washed, fixed and stained with Phalloidin and DAPI. The plates were scanned with a high-content microscope with six-fields per well to quantify the cell number and cell morphology. […] The cell eccentricity was calculated to measure the cell morphology. The Z-score was calculated by T-test to measure the difference in cell morphologies between each compound and DMSO control.
Cells were treated with a library of over 4000 individual compounds or drugs at the final concentration of 20 μM using the CyBi-Well simultaneous pipettor (CyBio). […] After 24 hr incubation, supernatants were removed using the microplate washer (Bioteck) and cells were fixed by adding 50 μL 16% paraformaldehyde (Thermo Scientific) with the dispenser for 20 minutes. Cells were then washed with 50 μL 1×PBS twice and incubated for 20 minutes with NucBlue and AF746 Phalloidin (Invitrogen) to stain nucleus and cytoskeleton. Cells were then washed with 50 μL 1×PBS twice and maintained in PBS for the image acquirement. Plates were read in the Opera Phenix high content screening system (PerkinElmer) to photograph cells using 20× objective in 2 fluorescent channels (Blue and FarRed). A total of 6 different fields in each well and an average of 1,000 cells were imaged per well. CellProfiler was used to identify each cell by overlapping signals from its nucleus and cytoskeleton, and calculate the eccentricity as the parameter to measure the cell morphology. The Z-score was calculated by T-test to measure the difference of cell morphology between each treatment and control. For each row of the 384-well plate, total 4 wells with first and last two columns treated with the same concentration of DMSO were combined as the control for the other 20 treatment wells in that row. In the meantime, classic M1 and M2 stimuli were added to generate the gold-standard Z-score cutoffs with M1 or M2 activation. Classic M1 stimuli include LPS (100 ng/mL), IFNγ (50 ng/mL, Peprotech), TNFα (50 ng/mL, Peprotech), or IFNγ plus TNFα. Classic M2 stimuli include IL-10 (10 ng/mL, Peprotech), IL-4 (10 ng/mL, Peprotech), or IL-13 (5 ng/mL, Peprotech).

[2] = system: hMDMs differentiated into M2 by IL-4 plus IL-13; experiment: Reprogramming screen and dosage response on M2-like differentiated macrophages; conditions: for EC (M1 Z-score cutoff): Homo sapiens, Macrophage, 24 h, read-out: EC; for EC: M1-activating compounds on M2-like macrophages (IL-4 plus IL-13), EC = concentration reaching Z-score cutoff; for Category: differentiated macrophages;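 as to all read-outs here: human monocyte-derived macrophages held 24 h in 5 ng/mL IL-4 plus IL-13 before 24 h compound exposure, with cell shape measured from images in 384-well plates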
[3] = system: ImKCs (immortalized line of mouse Kupffer cells); experiment: Seahorse ECAR/OCR (glycolysis, OxPhos) in ImKCs; type: cell-based; conditions: ImKCs, S1P 3 mM, 24 hrs
Method: Shown are representative data of three independent experiments. […] Data are presented as the mean±sd (n=4).
FIGS. 21A-21I show DPI stimulates glycolysis through GPR3 and β-arrestin2. FIGS. 21A-21B show DPI-stimulated glycolysis is independent of the NOX activity. […] The mean fluorescence intensity (MFI) of 2-NBDG in cells was measured by flow cytometry and normalized to DMSO controls of wildtype BMDMs. Data are presented as the mean±sd (n=3). […] ImKCs were transfected with siRNA specific for Gpr3 or a scramble siRNA as control. […] Data are presented as the mean±sd (n=4). […] Data are presented as the mean±sd (n=12). […] Abbr2^−/− ImKC were constructed by CRISPR-Cas9-mediated gene editing. […] Data are presented as the mean±sd (n=4). […] ImKCs were transfected with Abbr2-GFP fusion gene and stimulated with DMSO, DPI (50 nM), or S1P (3 mM). The GFP signal was captured with a TIRF microscope at indicated time points. Shown are representative data of GFP signal at 0 min and 10 min, and merged signal from three independent experiments.
Specific parameters for glycolytic capacity and glycolytic reserve were calculated and summarized based on two independent experiments. […] The GFP signal was captured with a TIRF microscope at indicated time points. Shown are representative data of GFP signal at 0 min and 10 min, and the merged signal from three independent experiments.
OCR and ECAR were measured in isolated tissues or cultured ImKCs using the Seahorse XFe Extracellular Flux Analyzer (Agilent). For tissue respiration assays, 1.0 mg adipose tissue was dissected from inguinal WAT depots by using a surgical biopsy instrument (Integra Miltex Standard Biopsy Punches, Thermo Fisher) and placed into XF96 Islet Capture Microplates and pre-incubated with XF assay medium with pH value at 7.4. XF assay medium supplemented with 1 mM sodium pyruvate, 2 mM GlutaMax™-I, and 25 mM glucose. Isolated MDMs or Kupffer cells were subjected to a mitochondrial stress test by adding oligomycin (2 μM) followed by carbonyl cyanide 4-(trifluoromethoxy), phenylhydrazone (FCCP, 5 μM), and antimycin (1 μM). For glucose stress assay and ECAR measurement, XF assay medium was supplemented only with GlutaMax™-I. Tissue or cells were subjected to a glucose stress test by adding highly concentrated glucose (for tissue, 25 mM; for cells, 10 mM), followed by adding oligomycin (5 μM), FCCP (5 μM), and 2-DG (50 mM). Cells were seeded in culture dishes, and the medium was changed after 6 hours with serum-free DMEM. Cells were incubated for 12-16 hours, and the culture medium was then collected for measurement of glucose and lactate concentrations. Glucose levels were determined using a glucose (GO) assay kit (Sigma). Glucose consumption was the difference in glucose concentration when compared with DMEM. Lactate levels were determined using a lactate assay kit (Eton Bioscience).
DPI is an agonist of GPR3 and an inhibitor of […] oxidase (NOX). We first determined the requirement of NOX in DPI-stimulated glycolysis.
To determine the requirement of GPR3, we knocked down GPR3 by siRNA (siGpr3) in ImKCs.
β-arrestin2, encoded by Arrb2, has been reported to bind to GPR3 and is required for GPR3 signaling. To investigate the requirement of 0-arrestin2 in DPI-stimulated glycolysis, we constructed Arrb2^−/− ImKCs using CRISPR-Cas9 mediated gene editing (FIG. 28F).

[4] = system: subcutaneous B16F10 tumors; experiment: B16F10 melanoma model in B6 mice; type: in vivo, mouse; conditions: i.p. 1 mg/kg
[5] = system: mouse bone marrow macrophages (BMMs); experiment: Development and function of TAM/M2-like macrophages in vitro (qPCR, flow cytometry); type: cell-based; conditions: mouse BMMs, induced by IL4/IL13, 24 hours
Method: DEGs were identified by edgeR at P<0.05 with at least 2 fold-change. Data for genes that were not classified as differentially expressed are plotted in black. […] Mouse BMMs were cultured in normal medium with or without 2.5 μM thiostrepton for 24 hrs (group 1), or cultured in B16F10 tumor cell conditioned medium (CM) with or without 2.5 μM thiostrepton for 24 hrs (group 2), or cultured with B16F10 tumor cell CM for 24 hrs first and then treated with 2.5 μM thiostrepton for another 24 hrs (group 3). The transcript levels of the indicated genes were quantified by qPCR. Data were summarized from two independent experiments. […] Mouse BMMs were treated with thiostrepton for 24 hrs. Untreated and treated macrophages were co-cultured with equal number of B16F10 melanoma cells for 12 hrs. The number of tumor cells were quantified by flow cytometry after subtracting macrophages from total number of cells. Data were summarized from three independent experiments. ** P<0.01 by T-test.
Expression of MHCII, CD80, iNOS, Arg1 and CD206 were quantified by flow cytometry. Shown are representative staining profiles of treated (red) and untreated (dark) TAMs from two independent experiments. […] Alternatively, mouse BMMs were polarized with IL-4/IL-13 (group 3) or lactic acid (group 5) for 24 hrs first and then either not treated or treated with […] thiostrepton for another 24 hrs. The transcript levels of the indicated genes were quantified by qPCR. Data are summarized from two independent experiments.
Mouse BMMs were not treated or treated with […] thiostrepton for 24 hours in normal medium (group 1) or in the presence of IL4/IL13 (group 2), or mouse BMMs were polarized with IL4/IL13 for 24 hours and then either not treated or treated with […] thiostrepton for 24 hours (group 3). RNA was isolated and the transcript levels of the indicated genes were quantified by PCR. Data, shown as mean±s.d., were summarized from two independent experiments. * P<0.05 and ** P<0.01 by T-test. […] Data are shown as mean±s.e.m. FIGS. 19C-19D show flow cytometry analysis of TAM (F4/80^+CD11b^+Ly6C^−Ly6G^−), inflammatory monocytes (F4/80′^intCD11b^+Ly6C^+Ly6G^−) and monocytes (F4/80^−CD11b^+Ly6C^+Ly6G^+) in the tumors of mice treated with DMSO, TA99, cucurbitacin I, and cucurbitacin I plus TA99 18 days after tumor engraftment. Shown are representative F4/80 versus CD11b staining profiles gating on CD45+ cells and MHCII histograms gating on macrophages from c.
Mouse bone marrow-derived macrophages (mBMM) were prepared as described previously^54. Briefly, fresh bone marrow cells were isolated from B6 mice. Cells were plated into 6-well plate with 1×10^6/mL in complete RPMI with 2-mercaptoethanol and cultured for 6 days with fresh medium change every 2 days. mBMMs were differentiated to resemble TAMs in the presence of 10 ng/mL mIL-4 and mIL-13 (Peprotech) or 25 mM lactate acid for 24 hrs or tumor conditioned medium (CM). To prepare CM, 70% confluent B16F10 cultured were replaced with fresh medium and the tumor medium was collected and filtered ([…]) 24 hrs later. The mixture of 3 volumes of tumor medium with 1 volume of complete RPMI for mBMM serves as the CM. Expression of Arg, Fizz1 and Vegfa were quantified by qPCR to assess the development of TAMs. Other genes of Tnf, Il1b, Nos2, Cxcl2, Ccl5, Ym1 and Tgfb serve as macrophage activating markers. To assay the tumor growth inhibition, mBMMs (10,000 cells per well in 96 well plate) were treated with thiostrepton for 24 hrs and then cocultured with equal number of B16 melanoma cells in fresh complete RPMI for 12 hrs. The conditioned medium treated or not treated with thiostrepton were collected and filtered. The numbers of B16 melanoma cells were cultured for 12 hrs with conditioned medium or conditioned medium heated at 95° C. for 5 min. Tumor cells were quantified by flow cytometry to determine the macrophage-dependent killing function. […]

Compound	gene expression of TPP modules (#30, #32) (hMDMs)	gene expression of typical M1 modules (#7, #8) (hMDMs)	Category (M0 macrophages (hMDMs))	EC (M0 macrophages (hMDMs)) [µM]	Max absolute Z-value (M0 macrophages (hMDMs))	other results
VEGF	down-regulated	up-regulated	–	–	–	–
CN1c2cc3c(cc2N=C(c2ccc(C(=O)O)cc2)c2ccccc21)C(C)(C)CCC3(C)C [LE135]	–	–	M1 (−4 for M1-activated macrophages)	0.419	−8.912	–
leptin: ligand of novel pathway	down-regulated	up-regulated	–	–	–	–
CC(=O)O[C@H]1C(=O)[C@@]2(C)[C@H]([C@H](OC(=O)c3ccccc3)[C@]3(O)C[C@H](OC(=O)[C@H](O)[C@@H](NC(=O)c4ccccc4)c4ccccc4)C(C)=C1C3(C)C)[C@]1(OC(C)=O)CO[C@@H]1C[C@@H]2O [Taxol]	–	–	–	–	–	activation state induced in the screen [1]: M1-activating; EC (M1 Z-score cutoff) [2]: 0.129 µM; macrophage phenotype at transcriptional and translational level (hMDMs): activated macrophages toward M1-like phenotype
O=C(Nc1nc2ccc(NC(=O)C34CC5CC(CC(C5)C3)C4)cc2s1)c1ccccc1 [NVP 231]	–	–	M1 (−4 for M1-activated macrophages)	2.25	−22.37	Average Z-value ([1]; cell shape Z-score of hMDMs treated with compound at 20 µM for 24 hours, averaged over the compounds listed for the WikiPathways pathway, negative = M1-like, positive = M2-like): −4.79; EC [2]: 5.745 µM; Category [2]: M1 (−4 for M1-activated macrophages)
NCCc1c[nH]c2ccc(O)cc12 [5HT, serotonin]	down-regulated	up-regulated	–	–	–	–
COC(=O)Nc1nc2ccc(Sc3ccccc3)cc2[nH]1 [Fenbendazole]	–	–	–	–	–	activation state induced in the screen [1]: M1-activating; EC (M1 Z-score cutoff) [2]: 0.649 µM; macrophage phenotype at transcriptional and translational level (hMDMs): activated macrophages toward M1-like phenotype
CCCCCCCCCCCCC/C=C/[C@@H](O)[C@@H](N)COP(=O)(O)O [S1P, sphingosine-1-phosphate]	–	–	–	–	–	glycolysis [3]: significant increase
NCCc1ccc(O)c(O)c1 [dopamine]	up-regulated	down-regulated	–	–	–	–
CC(C)(O)/C=C/C(=O)[C@](C)(O)[C@H]1[C@H](O)C[C@@]2(C)[C@@H]3CC=C4[C@@H](C=C(O)C(=O)C4(C)C)[C@]3(C)C(=O)C[C@]12C [Cucurbitacin I]	–	–	M1 (−4 for M1-activated macrophages)	0.342	−4.808	EC [2]: 1.759 µM; Category [2]: M1 (−4 for M1-activated macrophages); B16F10 growth [4]: inhibited; development and function of tumor-associated macrophages in vitro [5]: inhibits
